Measured values reported in ChEMBL document CHEMBL1151844, “Flavonoid glucosides from the hairy roots of Catharanthus roseus” (J Nat Prod, 2009).
The source made the active and inactive calls. The calls are words filed in the database; no cut-off is given here.

Legend:
[1] = test system: THP-1; assay: Antiinflammatory activity against human THP1 cells assessed as inhibition of LPS-induced MMP9 expression pretreated 2 hrs before LPS challenge measured after 24 hrs by SDS-PAGE; type: functional, cell-based
[2] = test system: MCF7; assay: Cytotoxicity against human MCF7 cells; type: functional, cell-based
[3] = test system: DLD2; assay: Cytotoxicity against human DLD2 cells; type: functional, cell-based
[4] = test system: THP-1; assay: Cytotoxicity against LPS-stimulated human THP1 cells assessed as cell viability at 26.9 uM pretreated 2 hrs before LPS-challenge measured after 24 hrs by MTS assay; type: cell-based; conditions: thp-1, 24 h
[5] = test system: A549; assay: Cytotoxicity against human A549 cells; type: functional, cell-based
[6] = test system: Ca-Ski; assay: Cytotoxicity against human CaSki cells by; type: functional, cell-based
[7] = test system: THP-1; assay: Antiinflammatory activity against human THP1 cells assessed as inhibition of LPS-induced TNFalpha release at 6.7 to 26.9 uM pretreated 2 hrs before LPS challenge measured after 24 hrs by ELISA; type: functional, cell-based
[8] = test system: THP-1; assay: Antiinflammatory activity against human THP1 cells assessed as inhibition of LPS-induced TNFalpha release at 6.5 to 25.9 uM pretreated 2 hrs before LPS challenge measured after 24 hrs by ELISA; type: functional, cell-based
[9] = test system: THP-1; assay: Cytotoxicity against LPS-stimulated human THP1 cells assessed as cell viability at 25.9 uM pretreated 2 hrs before LPS-challenge measured after 24 hrs by MTS assay; type: cell-based; conditions: thp-1, 24 h
[10] = test system: THP-1; assay: Cytotoxicity against LPS-stimulated human THP1 cells assessed as cell viability at 29.4 uM pretreated 2 hrs before LPS-challenge measured after 24 hrs by MTS assay; type: cell-based; conditions: thp-1, 24 h
[11] = test system: THP-1; assay: Antiinflammatory activity against human THP1 cells assessed as inhibition of LPS-induced TNFalpha release at 7.3 to 29.4 uM pretreated 2 hrs before LPS challenge measured after 24 hrs by ELISA; type: functional, cell-based
[12] = test system: THP-1; assay: Cytotoxicity against LPS-stimulated human THP1 cells assessed as cell viability at 29.0 uM pretreated 2 hrs before LPS-challenge measured after 24 hrs by MTS assay; type: cell-based; conditions: thp-1, 24 h
[13] = test system: THP-1; assay: Antiinflammatory activity against human THP1 cells assessed as inhibition of LPS-induced TNFalpha release at 7.3 to 29.0 uM pretreated 2 hrs before LPS challenge measured after 24 hrs by ELISA; type: functional, cell-based

SMILES: CCC(C)C(CCC(C)CCCC(C)CCCC(C)C)O[C@H]1[C@H](O)[C@@H](O)[C@H](Oc2c(-c3ccc(OC)cc3)oc3cc(O)cc(O)c3c2=O)O[C@@H]1CO (stereo partly drawn)
- Activity [1]: Dose-dependent effect
- Activity [2]: Not toxic
- Activity [3]: Not toxic
- Activity [4]: Non-toxic
- Activity [5]: Not toxic
- Activity [6]: Not toxic
- Activity [7]: Active

SMILES: C/C=C(\C)C(CCC(C)CCCC(C)CCCC(C)C)O[C@H]1[C@H](O)[C@@H](O)[C@H](Oc2cc(O)c3c(=O)c(O)c(-c4ccc(OC)c(OC)c4)oc3c2)O[C@@H]1CO (stereo partly drawn)
- Activity [1]: Dose-dependent effect
- Activity [2]: Not toxic
- Activity [8]: Active
- Activity [3]: Not toxic
- Activity [5]: Not toxic
- Activity [9]: Non-toxic
- Activity [6]: Not toxic

SMILES: C=C(CCC=C(C)C)CC/C=C(\C)CC(=O)OC[C@H]1O[C@@H](Oc2ccc3c(c2)O[C@@H](c2ccc(OC)c(OC)c2)CC3=O)[C@H](O)[C@@H](O)[C@@H]1O
- Activity [1]: Dose-dependent effect
- Activity [2]: Not toxic
- Activity [10]: Non-toxic
- Activity [3]: Not toxic
- Activity [11]: Active
- Activity [5]: Not toxic
- Activity [6]: Not toxic

SMILES: COc1ccc([C@H]2CC(=O)c3ccc(O[C@@H]4O[C@H](COC(=O)CC(C)CCCC(CO)CCCC(C)C)[C@@H](O)[C@H](O)[C@H]4O)cc3O2)cc1OC (stereo partly drawn)
- Activity [1]: Dose-dependent effect
- Activity [2]: Not toxic
- Activity [3]: Not toxic
- Activity [12]: Non-toxic
- Activity [5]: Not toxic
- Activity [6]: Not toxic
- Activity [13]: Active
